Entries after “also recorded” stand apart in the source; their conditions may differ.
Key:
[1] = tested on: wild-type plants (A. thaliana); assay: Toxicity of keto acids to wild-type plants on half strength MS agar plates; type: in vivo, Arabidopsis thaliana; conditions: for effect on growth of A. thaliana: in vivo
Description: (§1) To evaluate the toxic action of 3-methyl-2-oxopentanoate and 3-methyl-2-oxobutanoate, wild-type plants were sown on two sets of half strength MS agar plates, each containing one of the compounds in a range of concentrations (0.01-10 mM). […] For 3-methyl-2-oxobutanoate, 5 mM was required for complete inhibition. Further, several attempts were made to probe the nature of D-serine's toxicity.

DAAO transgenic plants = assay: Germination of DAAO transgenic plants on D-Asn (cytosolic and peroxisomal DAAO); type: in vivo; conditions: 30 mM; cytosolic and peroxisomal DAAO constructs vs wild-type
[2] = tested on: dao1 transgenic A. thaliana; assay: Growth of dao1 (DAAO) transgenic A. thaliana on D-amino acid media; type: in vivo, Arabidopsis thaliana
Description: (§2) FIG. 4 D-amino acid dose responses of dao1 transgenic and wild-type A. thaliana. • (a-d) Growth of dao1 transgenic line 3:7 (white), 10:7 (light gray), 13:4 (gray) and wild-type (black) plants, in fresh weight per plant, on media containing various concentrations of D-serine, D-alanine, D-isoleucine and D-valine in half-strength MS with 0.5% (wt/vol) sucrose and 0.8% (wt/vol) agar. Different concentration ranges were used for different D-amino acids. The plants were grown for 10 d after germination under 16 h photoperiods at 24° C.; n=10±s.e.m., except for plants grown on D-isoleucine, where smaller Petri dishes were used, (n=6±s.e.m.). • (e-l) Photographs of dao1 transgenic line 10:7 (e-h) and wild-type plants (i-l), grown for 10 d on the highest concentrations of the D-amino acid shown in the respective graphs above. All pictures have the same magnification. FW, fresh weight.
Therefore, plants containing the construct were tested as described above on two sets of media, one containing D-isoleucine and the other containing D-valine at various concentrations, to assess whether DAAO could also be used as a counter-selection marker. Unambiguous counter-selection selection was achieved when seeds were sown on either D-isoleucine or D-valine at concentrations greater than 10 mM (FIG. 4 c,d).

[3] = tested on: wild-type Arabidopsis thaliana; assay: Growth of wild-type A. thaliana on D-amino acid media; type: in vivo; conditions: for effect on growth of wild-type plantlets: FIG. 3, half-concentrated MS medium supplemented at 3 mM (Panel A) or 30 mM (Panel B); for effect on wild-type plants: concentration not stated / various concentrations
Description: FIG. 3 Effect of various D-amino acids on plant growth. • Wild type Arabidopsis thaliana plantlets were grown on half-concentrated Murashige-Skoog medium (0.5% (wt/vol) sucrose, 0.8% (wt/vol) agar) supplemented with the indicated D-amino acid at either 3 mM (Panel A) or 30 mM (Panel B).
as §2

wild-type seedlings = assay: Spray application of D-amino acids on soil-grown wild-type seedlings; type: in vivo, Arabidopsis thaliana; conditions: one-week-old seedlings, 50 mM, sprayed on three consecutive days
Description: (§3) FIG. 5: Selection of primary transformants with the DAAO marker. • (a-c) DAAO T1 seedlings on media containing 3 mM D-alanine (a), 3 mM D-serine (b) and 50 μg ml-1 kanamycin (c). Seeds were surface-sterilized and sown on half-strength MS plates with 0.5% (wt/vol) sucrose, 0.8% (wt/vol) agar and the respective selective compound, then grown for 5 d after germination under 16 h photoperiods at 24° C. • (d) DAAO transgenic plants grown on soil photographed after selection by spraying with (1) D-alanine and (2) D-serine, and wild-type plants sprayed with (3) D-alanine and (4) D-serine. Eight seeds per plot and treatment were sown on soil, and grown for 7 d after germination before applying the selective treatment, which consisted of spraying with aqueous 50 mM solutions of D-alanine or D-serine with 0.05% Tween 80 on three consecutive days.
(§4) FIG.: 11 D-amino acids are applicable by spraying procedure DAAO transgenic plants grown on soil photographed after selection by spraying with (1) D-alanine and (2) D-serine, and wild-type plants sprayed with (3) D-alanine and (4) D-serine. Eight seeds per plot and treatment were sown on soil, and grown for 7 d after germination before applying the selective treatment, which consisted of spraying with aqueous 50 mM solutions of D-alanine or D-serine with 0.05% Tween 80 on three consecutive days.

[4] = tested on: DAAO transgenic seedlings; assay: Spray application of D-amino acids on soil-grown DAAO transgenic seedlings; type: in vivo, Arabidopsis thaliana; conditions: 50 mM spray
Description: as §3, §4

[5] = tested on: wild-type Arabidopsis thaliana; assay: Growth of wild-type A. thaliana on D-amino acid media; type: in vivo; conditions: 30 mM, FIG. 2
DAAO = target: T1, DAAO (Rhodotorula toruloides, UniProt P80324); assay: DAAO incubation of cell-free plant extracts, keto acid production by HPLC; type: biochemical, Rhodotorula gracilis; conditions: cell-free extracts from dao1 transgenic line 10:7
T1 construct: expressed in transfected cells; host or cells: Arabidopsis thaliana (Col-0) dao1 transgenic line 10:7, stably transformed with pPCV702:dao1 (CaMV 35S); crude soluble protein extract
T1 sequence (P80324 25-368): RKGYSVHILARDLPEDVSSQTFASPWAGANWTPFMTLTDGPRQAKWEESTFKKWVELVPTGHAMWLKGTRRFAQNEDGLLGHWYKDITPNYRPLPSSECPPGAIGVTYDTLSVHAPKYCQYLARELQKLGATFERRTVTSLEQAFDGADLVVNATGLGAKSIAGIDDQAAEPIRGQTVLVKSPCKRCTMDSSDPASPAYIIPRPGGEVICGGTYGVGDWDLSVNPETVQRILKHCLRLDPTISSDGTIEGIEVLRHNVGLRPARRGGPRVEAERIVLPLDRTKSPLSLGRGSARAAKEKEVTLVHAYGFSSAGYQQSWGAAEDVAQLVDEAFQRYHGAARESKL
Description: Soluble proteins were extracted by shaking 0.1 g samples of plant material that had been finely pulverized in a 1.5 ml Eppendorf tube in 1 ml of 0.1 M potassium phosphate buffer, pH 8. DAAO activity was then assayed as follows. Reaction mixtures were pre-pared containing 2,120 μl of 0.1 M potassium phosphate buffer, pH 8, 80 μl of crude protein extract and 100 μl of 0.3 M D-alanine. The samples were incubated for 2 h at 30° C. The enzyme activity was then assessed, by measuring the increase in absorbance at 220 nm (E=1.090 M^−1 cm^−1) associated with the conversion of D-alanine to pyruvate, after transferring the test tubes to boiling water for 10 min to stop the reaction. In control reactions, D-alanine was added immediately before boiling. One unit of DAAO activity is defined as the turnover of one micromole of substrate per minute, and activity was expressed per gram plant biomass (fresh weight). The breakdown of D-isoleucine and D-valine in DAAO incubations, and the associated production of 3-methyl-2-oxopentanoate and 3-methyl-2-oxobutanoate, were analyzed by high-performance liquid chromatography. In other respects the reactions were carried out as described above.

[6] = tested on: T1 seeds of transgenic Arabidopsis plants; assay: Selection of DAAO (35S:dao1 / pNos:nptII) T1 seeds on selective media; type: in vivo, Arabidopsis thaliana; conditions: FIG. 4a
Description: Flowering A. thaliana plants were then transformed by the floral dip method (Clough S J & Bent A F (1998) Plant J. 16, 735-743 (1998) with the transgenic Agrobacterium tumefaciens strain carrying the vector described above by dipping for 10-20 seconds into the Agrobacterium solution. Afterwards the plants were kept in the greenhouse until seeds could be harvested. Transgenic seeds were selected by plating surface sterilized seeds on growth medium A (4.4 g/L MS salts [Sigma-Aldrich], 0.5 g/L MES [Duchefa]; 8 g/L Plant Agar [Duchefa]) supplemented with 50 mg/L kanamycin for plants carrying the nptII resistance marker, or 0.3 to 30 mM D-amino acids (as described below) for plants comprising the dual-function marker of the invention. Surviving plants were transferred to soil and grown in the greenhouse.
T1 seeds of transgenic Arabidopsis plants were surface-sterilized and sown in Petri plates that were sealed with gas-permeable tape. The growth medium was half strength MS19 with 0.5% (wt/vol) sucrose and 0.8% (wt/vol) agar, plus 3 mM D-alanine, 3 mM D-serine or 50 μg/ml kanamycin as the selective agent. […] To evaluate the selection efficiency on different substrates, 2,074, 1,914 and 1,810 T1 seeds were sown on D-alanine-, D-serine- and kanamycin-selective plates, respectively, and the number of surviving seedlings was counted (44, 32 and 43, respectively). […]

[7] = tested on: poplar, tobacco, barley, maize, tomato and spruce; assay: Susceptibility of other plant species to D-serine; type: in vivo; conditions: concentrations similar to those toxic for A. thaliana; FIG. 6+7
wildtype A. thaliana = assay: Attempted rescue of wild-type A. thaliana grown on lethal D-serine with potential inhibitors of D-serine toxicity; type: in vivo, Arabidopsis thaliana; conditions: lethal concentrations of D-serine, added separately and in combinations, 0.001-50 μg ml-1
Description: as §1

[8] = wild-type plants, half strength MS agar, tested range 0.01-10 mM
[9] = concentration not stated / various concentrations

## CC(C)C(=O)C(=O)O [3-methyl-2-oxobutanoate]
[1]
  effect on growth of A. thaliana: impaired growth
[1]; [8]
  concentration giving total (complete) growth inhibition: 5 mM

## CCC(C)C(=O)C(=O)O (stereo not drawn) [3-methyl-2-oxopentanoate]
[1]
  effect on growth of A. thaliana: impaired growth
[1]; [8]
  concentration at which plants were slightly affected: 0.1 mM
  concentration giving total (complete) growth inhibition: 1 mM

## NC(=O)C[C@@H](N)C(=O)O [D-Asn, D-asparagine]
DAAO transgenic plants
  inhibition of germination of DAAO transgenic plants: inhibited significantly more than the wild-type

## C[C@@H](N)C(=O)O [D-alanine]
[2]; 30 mM
  effect on transgenic (DAAO) plants: no severe damage; also recorded: no negative effect
[2]; [9]
  effect on transgenic (DAAO) plants: detoxify; also recorded: developed normally
[3]
  effect on growth of wild-type plantlets: severe phytotoxic effects
  effect on wild-type plants: inhibited even at quite low concentrations; also recorded: inhibited growth
wild-type seedlings
  effect of sprayed application on wild-type seedlings: effectively killed
[4]
  response of transgenic seedlings to foliar application: resistant
[5]
  effect on wild-type plantlets: toxic effect

## CC[C@@H](C)[C@@H](N)C(=O)O [D-isoleucine]
[2]; 30 mM
  effect on transgenic (DAAO) plants: toxic effect
[2]; [9]
  effect on transgenic (DAAO) plants: strong negative influence; also recorded: inhibit growth; also recorded: effectively killed
[3]
  effect on growth of wild-type plantlets: no significant effects
  effect on wild-type plants: not toxic; also recorded: minor effects; also recorded: not the wild-type plants; also recorded: no sign of toxicity
DAAO
  increase in production of the keto acid (3-methyl-2-oxopentanoate / 3-methyl-2-oxobutanoate) compared to extracts of wild-type plants: 15 fold
[5]
  effect on wild-type plantlets: no severe damage

## N[C@H](CO)C(=O)O [D-serine]
[6]
  concentration at which efficient selection was achieved: lower than 1 mM
[2]; 3 mM
  effect on transgenic (DAAO) plants: slightly inhibited the growth
[2]; 30 mM
  effect on transgenic (DAAO) plants: significant growth inhibition
[2]; [9]
  effect on transgenic (DAAO) plants: detoxify; also recorded: developed normally
[3]
  effect on growth of wild-type plantlets: severe phytotoxic effects
  effect on wild-type plants: inhibited even at quite low concentrations; also recorded: inhibited growth
wild-type seedlings
  effect of sprayed application on wild-type seedlings: effectively killed
[4]
  response of transgenic seedlings to foliar application: resistant
[7]
  toxicity to other plant species: toxic effects; also recorded: susceptible

## CC(C)[C@@H](N)C(=O)O [D-valine]
[2]; [9]
  effect on transgenic (DAAO) plants: strong negative influence; also recorded: inhibit growth
[3]
  effect on wild-type plants: not toxic; also recorded: minor effects; also recorded: not the wild-type plants; also recorded: moderately negative effect
DAAO
  increase in production of the keto acid (3-methyl-2-oxopentanoate / 3-methyl-2-oxobutanoate) compared to extracts of wild-type plants: 7 fold

## CC[C@H](C)[C@H](N)C(=O)O [L-isoleucine]
[3]
  effect on wild-type plants: negative effects

## N[C@@H](CO)C(=O)O [L-serine]
Wildtype A. thaliana
  rescue (mitigation) of D-serine toxicity: without any success

## CC(C)C[C@H](N)C(=O)O [leucine]
Wildtype A. thaliana
  rescue (mitigation) of D-serine toxicity: without any success

## CC(C)(CO)[C@@H](O)C(=O)NCCC(=O)O [pantothenic acid]
Wildtype A. thaliana
  rescue (mitigation) of D-serine toxicity: could not be mitigated

## C[C@@H](O)[C@H](N)C(=O)O [threonine]
Wildtype A. thaliana
  rescue (mitigation) of D-serine toxicity: without any success

## NCCC(=O)O [β-alanine]
Wildtype A. thaliana
  rescue (mitigation) of D-serine toxicity: without any success
Wildtype A. thaliana; listed as â-alanine
  rescue (mitigation) of D-serine toxicity: could not be mitigated

## calcium-pantothenate
Wildtype A. thaliana
  rescue (mitigation) of D-serine toxicity: without any success

Source: US20080050819A1, “Constructs for Marker Excision Based on Dual-Function Selection Marker” (BASF Plant Science GmbH, priority 2004, published 2008)
